Like-named read-outs stand apart in the source and are kept apart here.
Legend:
[1] = test system: FAD cofactor (in KDM1A or free); experiment: KDM1A binding analysis (FAD absorbance at 450 nm)
Protocol: Analysis of binding of inhibitors to KDM1A was as previously described [22](Yang et al., 2007) with minor modifications. The binding to FAD (present in the enzyme or free) was analyzed by measuring the decrease in absorbance at 450nm in a Tecan Infinite F200 microplate reader. Briefly, KDM1A enzyme was mixed with the inhibitor (without substrate) and the absorbance at 450nm was compared with the absorbance of the KDM1A enzyme without inhibitor. The reaction is monitored during 30 min and values used to calculate Kobs.
Absorbance at 450 nm was measured as described and Kobs was calculated following the equation: […]

[2] = test system: KDM1A; experiment: KDM1A target engagement in brain cortex (chemoprobe ELISA); type: in vivo, SAMP8 mice; conditions: end of 2 month treatment
Protocol: Native protein extracts of cells or tissues were obtained in presence of 25 nM OG-881 chemoprobe according the protocol described in Mascaró et al..
Luminescent ELISA: for quantification of total amount of KDM1A protein (TOTAL KDM1A), Luminunc Plates Maxisorp (NUNC; #436110) were coated with a monoclonal anti-KDM1A antibody (Abcam; #ab53269) at 2 µg/mL in PBS. For quantification of the fraction not bound to inhibitor (FREE KDM1A), plates were coated with streptavidin (Promega Biotech Ibérica; #Z7041) at 10 µg/mL in PBS. Coating was performed at 4°C O/N. Wells were washed 3 times in PBS, 0.1% Tween-20 and blocked with PBS-BSA 1% (Sigma; #A3059) for 2 hr. A KDM1A calibration curve of full length rKDM1A (Active Motif; #31334) diluted in PBS was included in each plate. Plates were then incubated 1 hr at RT and washed 5 times. […] Plates were centrifuged during 30 sec to 1,500 x g, shaken for 1 min at 100rpm and incubated inside the micropate reader (Infinite 200, Tecan) for 3 min at 25 °C. The relative luminescence units (RLU) readouts were acquired using a 1000 msec integration time and 150 msec settle time.
All assays were run as triplicate technical replicates (n = 3). After raw data processing (robust elimination of outliers according to Grubbs criteria and subtraction of blank signal on technical replicates), the target engagement was calculated as […]

[3] = test system: H3K9 ac; experiment: Epigenetic selectivity profile; type: biochemical; design: dose or concentration left out as unconfirmed
Protocol: (§1) […]. MAO-A inhibition at 10 μM was 37%, in line with internal data.

[4] = target: T1, 5-lipoxygenase (h) (Homo sapiens, UniProt P09917); experiment: CEREP Diversity Panel; type: biochemical
T1 construct: purchased CEREP (Eurofins Cerep)
T1 sequence (P09917 whole entry): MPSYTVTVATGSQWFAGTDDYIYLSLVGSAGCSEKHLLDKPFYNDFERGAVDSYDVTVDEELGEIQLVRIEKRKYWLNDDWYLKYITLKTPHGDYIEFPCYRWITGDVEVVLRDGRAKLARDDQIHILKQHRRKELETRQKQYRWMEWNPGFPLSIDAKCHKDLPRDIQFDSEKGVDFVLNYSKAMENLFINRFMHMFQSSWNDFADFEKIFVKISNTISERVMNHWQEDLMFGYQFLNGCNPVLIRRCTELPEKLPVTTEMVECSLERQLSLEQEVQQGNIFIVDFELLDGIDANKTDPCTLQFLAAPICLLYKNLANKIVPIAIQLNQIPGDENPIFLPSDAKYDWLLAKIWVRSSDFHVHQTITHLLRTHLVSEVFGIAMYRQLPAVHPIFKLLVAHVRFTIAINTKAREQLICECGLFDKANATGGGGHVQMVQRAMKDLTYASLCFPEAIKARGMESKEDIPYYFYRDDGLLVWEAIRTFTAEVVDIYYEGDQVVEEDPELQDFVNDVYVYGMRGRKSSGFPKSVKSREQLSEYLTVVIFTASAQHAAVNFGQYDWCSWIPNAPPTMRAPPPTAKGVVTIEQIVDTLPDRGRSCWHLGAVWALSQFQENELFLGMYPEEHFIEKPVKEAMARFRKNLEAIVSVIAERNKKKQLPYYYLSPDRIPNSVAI
Protocol: as §1

[5] = target: T2, PDE1B (h) (Homo sapiens, UniProt Q01064); experiment: CEREP Diversity Panel; type: biochemical
T2 construct: purchased CEREP (Eurofins Cerep)
Protocol: as §1

[6] = target: T3, tyrosine hydroxylase (Rattus norvegicus, UniProt P04177); experiment: CEREP Diversity Panel; type: biochemical
T3 construct: purchased CEREP (Eurofins Cerep)
T3 sequence (P04177 whole entry): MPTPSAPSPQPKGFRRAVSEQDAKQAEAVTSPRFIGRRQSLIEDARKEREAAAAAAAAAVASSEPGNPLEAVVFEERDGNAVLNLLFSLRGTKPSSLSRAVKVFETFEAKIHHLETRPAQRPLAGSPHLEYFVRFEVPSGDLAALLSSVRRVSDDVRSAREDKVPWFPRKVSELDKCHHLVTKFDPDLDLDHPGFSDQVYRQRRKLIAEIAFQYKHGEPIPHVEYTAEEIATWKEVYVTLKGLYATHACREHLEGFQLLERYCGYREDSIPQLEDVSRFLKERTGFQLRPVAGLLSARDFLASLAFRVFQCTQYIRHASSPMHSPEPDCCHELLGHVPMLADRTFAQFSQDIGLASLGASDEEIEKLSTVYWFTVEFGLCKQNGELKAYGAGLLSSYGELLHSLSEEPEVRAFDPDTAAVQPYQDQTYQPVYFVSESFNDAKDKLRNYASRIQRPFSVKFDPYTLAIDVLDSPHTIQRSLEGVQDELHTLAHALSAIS
Protocol: as §1

[7] = target: T4, PNMT (phenylethanolamine N-methyl transferase) (Bos taurus, UniProt P10938); experiment: CEREP Diversity Panel; type: biochemical
T4 construct: purchased CEREP (Eurofins Cerep)
Protocol: as §1

[8] = target: T5, CENP-E (h) (Homo sapiens, UniProt Q02224); experiment: CEREP Diversity Panel; type: biochemical
T5 construct: purchased CEREP (Eurofins Cerep)
Protocol: as §1

[9] = target: T6, Eg5 (h) (Homo sapiens, UniProt P52732); experiment: CEREP Diversity Panel; type: biochemical
T6 construct: purchased CEREP (Eurofins Cerep)
T6 sequence (P52732 whole entry): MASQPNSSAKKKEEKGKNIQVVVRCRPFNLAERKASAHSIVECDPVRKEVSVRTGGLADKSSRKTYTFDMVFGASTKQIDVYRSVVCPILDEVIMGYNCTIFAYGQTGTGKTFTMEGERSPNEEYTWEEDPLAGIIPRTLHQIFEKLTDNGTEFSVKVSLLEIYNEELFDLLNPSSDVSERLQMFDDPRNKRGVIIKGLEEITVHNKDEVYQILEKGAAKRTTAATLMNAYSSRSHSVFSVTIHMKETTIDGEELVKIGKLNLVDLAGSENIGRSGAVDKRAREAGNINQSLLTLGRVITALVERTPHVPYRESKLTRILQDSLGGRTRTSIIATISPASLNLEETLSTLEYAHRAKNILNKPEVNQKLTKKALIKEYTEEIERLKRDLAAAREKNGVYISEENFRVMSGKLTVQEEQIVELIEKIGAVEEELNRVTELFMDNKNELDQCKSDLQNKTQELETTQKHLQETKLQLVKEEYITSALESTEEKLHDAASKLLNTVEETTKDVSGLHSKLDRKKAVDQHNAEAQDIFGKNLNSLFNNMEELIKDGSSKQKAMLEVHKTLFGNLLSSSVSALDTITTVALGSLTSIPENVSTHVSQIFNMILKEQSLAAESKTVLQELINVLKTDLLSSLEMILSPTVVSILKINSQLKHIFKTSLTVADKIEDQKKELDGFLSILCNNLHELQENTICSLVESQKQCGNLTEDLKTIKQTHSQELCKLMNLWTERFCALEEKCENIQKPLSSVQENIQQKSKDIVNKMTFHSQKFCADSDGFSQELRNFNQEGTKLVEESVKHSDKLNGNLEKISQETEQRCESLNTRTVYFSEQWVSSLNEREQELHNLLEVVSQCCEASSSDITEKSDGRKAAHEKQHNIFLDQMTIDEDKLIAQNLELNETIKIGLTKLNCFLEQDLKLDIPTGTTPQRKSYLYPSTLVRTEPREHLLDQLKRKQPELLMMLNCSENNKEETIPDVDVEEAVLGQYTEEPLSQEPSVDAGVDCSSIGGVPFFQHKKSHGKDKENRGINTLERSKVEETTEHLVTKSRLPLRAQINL
Protocol: as §1

[10] = target: T7, phosphatase CDC25A (h) (Homo sapiens, UniProt P30304); experiment: CEREP Diversity Panel; type: biochemical
T7 construct: purchased CEREP (Eurofins Cerep)
Protocol: as §1

[11] = target: T8, phosphatase 1B (h) (PTP1B) (Homo sapiens, UniProt P18031); experiment: CEREP Diversity Panel; type: biochemical
T8 construct: purchased CEREP (Eurofins Cerep)
T8 sequence (P18031 whole entry): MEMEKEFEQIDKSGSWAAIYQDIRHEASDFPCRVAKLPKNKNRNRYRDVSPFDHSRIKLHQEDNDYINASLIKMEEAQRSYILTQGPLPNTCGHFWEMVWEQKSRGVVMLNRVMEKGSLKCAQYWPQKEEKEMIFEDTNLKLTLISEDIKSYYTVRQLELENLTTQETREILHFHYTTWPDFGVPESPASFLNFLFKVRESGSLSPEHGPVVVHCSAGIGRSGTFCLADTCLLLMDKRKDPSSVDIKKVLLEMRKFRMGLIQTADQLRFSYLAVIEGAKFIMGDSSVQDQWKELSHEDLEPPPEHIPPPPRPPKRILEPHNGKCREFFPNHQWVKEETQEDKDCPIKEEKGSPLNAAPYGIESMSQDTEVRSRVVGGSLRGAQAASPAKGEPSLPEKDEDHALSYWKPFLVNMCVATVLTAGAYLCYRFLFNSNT
Protocol: as §1

[12] = target: PDE2A1 (h) (Homo sapiens, UniProt O00408); experiment: CEREP Diversity Panel; type: biochemical
Protocol: as §1

[13] = target: T9, PKCa (h) (Homo sapiens, UniProt P17252); experiment: CEREP Diversity Panel; type: biochemical
T9 construct: purchased CEREP (Eurofins Cerep)
Protocol: as §1

[14] = target: T10, MAO- A (h) (Homo sapiens, UniProt P21397); experiment: CEREP Diversity Panel; type: biochemical
T10 construct: purchased CEREP (Eurofins Cerep)
T10 sequence (P21397 whole entry): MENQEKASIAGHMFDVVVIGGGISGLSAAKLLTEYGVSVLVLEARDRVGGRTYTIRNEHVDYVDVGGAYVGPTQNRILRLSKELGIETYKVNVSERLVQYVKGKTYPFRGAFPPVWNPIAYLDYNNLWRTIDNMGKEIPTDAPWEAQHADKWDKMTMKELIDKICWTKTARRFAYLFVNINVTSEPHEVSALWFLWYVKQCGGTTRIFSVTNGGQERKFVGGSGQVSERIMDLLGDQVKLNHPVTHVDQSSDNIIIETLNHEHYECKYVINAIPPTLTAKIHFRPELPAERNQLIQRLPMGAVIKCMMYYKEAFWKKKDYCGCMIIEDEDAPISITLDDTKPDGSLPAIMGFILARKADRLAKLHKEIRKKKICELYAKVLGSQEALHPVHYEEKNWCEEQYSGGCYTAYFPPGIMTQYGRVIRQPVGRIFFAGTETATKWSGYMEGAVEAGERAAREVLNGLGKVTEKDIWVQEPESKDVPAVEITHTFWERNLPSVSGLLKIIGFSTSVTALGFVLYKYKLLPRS
Protocol: as §1

[15] = target: T11, GABA transaminase (Rattus norvegicus, UniProt P50554); experiment: CEREP Diversity Panel; type: biochemical
T11 construct: purchased CEREP (Eurofins Cerep)
Protocol: as §1

[16] = target: T12, PDE3A (h) (Homo sapiens, UniProt Q14432); experiment: CEREP Diversity Panel; type: biochemical
T12 construct: purchased CEREP (Eurofins Cerep)
T12 sequence (Q14432 whole entry): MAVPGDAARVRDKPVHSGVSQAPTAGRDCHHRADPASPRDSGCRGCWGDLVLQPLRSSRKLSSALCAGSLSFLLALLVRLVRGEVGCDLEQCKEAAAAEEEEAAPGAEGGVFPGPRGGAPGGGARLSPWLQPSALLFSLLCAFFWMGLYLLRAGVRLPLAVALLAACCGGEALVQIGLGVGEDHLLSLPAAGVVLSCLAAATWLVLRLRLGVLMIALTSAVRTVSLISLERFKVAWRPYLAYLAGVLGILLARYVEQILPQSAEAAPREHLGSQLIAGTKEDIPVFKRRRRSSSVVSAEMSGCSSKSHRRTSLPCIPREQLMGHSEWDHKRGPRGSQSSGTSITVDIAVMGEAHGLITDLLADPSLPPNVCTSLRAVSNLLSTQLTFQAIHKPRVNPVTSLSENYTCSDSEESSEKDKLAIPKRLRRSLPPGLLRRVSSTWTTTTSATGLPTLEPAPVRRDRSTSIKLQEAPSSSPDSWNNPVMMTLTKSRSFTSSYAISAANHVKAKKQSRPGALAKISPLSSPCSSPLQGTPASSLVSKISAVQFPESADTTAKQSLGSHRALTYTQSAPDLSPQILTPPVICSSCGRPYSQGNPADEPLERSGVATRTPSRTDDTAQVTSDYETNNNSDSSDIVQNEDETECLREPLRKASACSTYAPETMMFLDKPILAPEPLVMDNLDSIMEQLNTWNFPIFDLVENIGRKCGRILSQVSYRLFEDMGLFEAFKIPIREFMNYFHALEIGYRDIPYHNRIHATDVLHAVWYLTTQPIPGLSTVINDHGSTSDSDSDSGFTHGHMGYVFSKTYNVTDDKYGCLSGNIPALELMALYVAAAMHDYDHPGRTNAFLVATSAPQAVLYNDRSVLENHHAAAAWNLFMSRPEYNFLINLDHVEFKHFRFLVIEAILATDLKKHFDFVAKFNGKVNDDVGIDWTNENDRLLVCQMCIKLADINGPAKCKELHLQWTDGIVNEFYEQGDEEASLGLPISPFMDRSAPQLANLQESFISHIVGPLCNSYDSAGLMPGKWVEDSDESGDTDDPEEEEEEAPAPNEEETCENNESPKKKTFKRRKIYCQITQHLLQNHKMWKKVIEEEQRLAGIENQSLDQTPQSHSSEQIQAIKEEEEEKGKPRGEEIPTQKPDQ
Protocol: as §1

[17] = target: T13, acetylcholinesterase (h) (Homo sapiens, UniProt P22303); experiment: CEREP Diversity Panel; type: biochemical
T13 construct: purchased CEREP (Eurofins Cerep)
Protocol: as §1

[18] = target: T14, Human recombinant IL-4I1 (Homo sapiens, UniProt Q96RQ9); experiment: IL4I1 inhibition assay; type: biochemical
T14 construct: purchased RD Systems 5684-AO-020
Protocol: Human recombinant IL-4I1 was purchased from RD Systems (Ref. 5684-AO-020). The biochemical activity was measured by its ability to oxidize phenylalanine (specific substrate for IL-4I1; Sigma, P2126) and liberate H2O2 was measured in a coupled horseradish peroxidase assay using Amplex Red reagent as a substrate, as described in the KDM1A assay. The IL4I1 assay buffer was 50 mM Sodium Phosphate pH 7.0. Inhibition of IL-4I1 was monitored during 30 min in the presence of KM phenylalanine peptide at the KMapp of IL-4I1.

SMILES: Nc1nnc(CN[C@@H]2C[C@H]2c2ccc(OCc3ccccc3)cc2)o1 [ORY-2001, vafidemstat]
- binding to free FAD [1]: does not bind free FAD
- mode of inhibition of KDM1A (FAD cofactor) ([1]; absorbance spectrum and MALDI-TOF): covalent binding
- KDM1A target engagement in cortex [2]: correlated with the observed functional effects on memory
- % inhibition [3]: -5%
- inhibition at 10 µM [4]: 3%
- inhibition at 10 µM [5]: 7%
- inhibition at 10 µM [6]: -12%
- inhibition at 10 µM [7]: 1%
- inhibition at 10 µM [8]: 3%
- inhibition at 10 µM [9]: -3%
- inhibition at 10 µM [10]: 5%
- inhibition at 10 µM [11]: 2%
- inhibition at 10 µM [12]: -2%
- inhibition at 10 µM [13]: 4%
- inhibition at 10 µM ([14]; 10 μM, read-out: MAO-A inhibition): 37%
- inhibition at 10 µM ([14]; at 10 µM, read-out: % inhibition): 37%
- inhibition at 10 µM [15]: 8%
- inhibition at 10 µM [16]: 1%
- inhibition at 10 µM [17]: -4%
- inhibition at 10 µM [18]: 29%

— paper PMC7259601 (PLoS ONE, 2020)
